According to patent US20250134870A1, “PATHWAY MODULATOR, PHARMACEUTICAL COMPOSITION HAVING SAME, USE THEREOF, AND THERAPEUTIC METHOD USING SAME” (Jiangsu Yahong Meditech Co., Ltd., priority 2021, published 2025):

Assays:
[1] = tested on: dextran sulfate sodium (DSS)-induced colitis; experiment: DSS-induced colitis in mice: body weight, DAI score, colon density (Examples 1, 3); assay type: in vivo, C57BL/6J mice; conditions: for Colon density: experimental endpoint
Protocol: 8-10 week old female C57BL/6J mice purchased from Charles River Laboratories were used. The mice were housed in a room at constant temperature (20+2° C.) (5 mice per cage) with a 12-hour light-dark cycle. All protocols were approved by the Institutional Animal Care and Use Committee of WuXi AppTec. These mice were adapted to the housing conditions at the animal experiment center of WuXi AppTec for at least three days prior to the experiment. […] At the experimental endpoint (see hereinafter), mice were euthanized and endpoint samples were obtained. Mice in the normal group were not given 3% DSS aqueous solution to induce colitis and were free to drink blank water. […] The animal body weight and DAI score were assessed under double-blind conditions, that is, the researchers collected the body weight data of mice and observed and scored the stool characteristics and blood stools every day, without knowing the group and dosing regimen. The DAI score was the sum of the weight loss score, stool score and bleeding score. […] The data were analyzed by analysis of variance, specifically by using the following process: using Graph Pad Prism 6.0 software to carry out post-hoc Dunnett's multiple comparison test. […] Data were expressed as mean±S.E.M. The experimental endpoint was 24 hours after administration on Day 8 for the positive drug control group and the Test group 1 #to Test group 7 #of Example 1; the experimental endpoint of the normal group and the solvent group was the same as that of the positive drug control group and Test group 1 #to Test group 7 #.

norepinephrine level = conditions: cited from earlier work
[2] = tested on: systolic and diastolic blood pressure; conditions: 200 mg, phase II clinical study, cited from earlier work
[3] = tested on: imiquimod (IMQ)-induced psoriasis; experiment: Imiquimod (IMQ)-induced psoriasis in mice: erythema, scales, thickness, total score, AUC (Example 8); assay type: in vivo, Balb/c mice; set-up: key to erythema score / scales score / thickness score: 0 = none, 1 = mild, 2 = moderate, 3 = obvious/severe; key to total score of erythema + scales + thickness: sum of three 0-3 scores (erythema + scales + thickening), 0-9; conditions: for erythema score / scales score: BID × 2 days; for thickness score / total score of erythema + scales + thickness: positive control group
Protocol: All mice were shaved with a pet shaver to get an area of 2×3 cm on the back one day before the start of the experiment.
65 animals were randomly divided into groups according to body weight, and the dosing regimen was as follows.
Imiquimod (IMQ) cream: 62.5 mg of IMQ cream for each mouse in G2 to G7; Dexamethasone (DEX) ointment: 70 mg of ointment for each mouse in G4;
Tofacitinib: Tofacitinib was dissolved in dimethyl sulfoxide to 5 mg/mL, and 50 μL was added to IMQ cream for daily treatment.
Mice in Groups 2 to 7 received daily topical doses of 62.5 mg of IMQ cream on their shaved back from Day 0 to Day 7.
Dosing of the test compounds and reference substance was carried out according to Table 29 for 7 consecutive days.
To assess the severity of inflammation of skin on the back, the skin on the back was scored according to Table 30. Erythema, scales and thickening were scored independently on a scale of 0 to 3, 0, none; 1. mild; 2. moderate; 3. obvious/severe.
The inhibition rate was calculated according to the following formula: Inhibition rate=[AUC (solvent)−AUC (treatment)]/AUC (solvent)×100%. Wherein, solvent referred to the solvent group corresponding to the route of administration.

[4] = tested on: dextran sulfate sodium (DSS)-induced colitis; experiment: DSS-induced colitis in mice, 3.1% DSS: body weight change and DAI (Example 11); assay type: in vivo, C57BL/6 mice; conditions: 100 mg/kg, qd
Excerpt: The experimental mice were housed in an SPF grade animal room for three days for adaptation, and randomly divided into 7 groups (6 model groups and 1 control group) of 10 mice in each group. Dosing of mice started on Day 0 and ended on Day 7.
The mouse enteritis model of this Example was established by DSS induction: mice in the model group were provided with a 3.1% DSS (dextran sulfate sodium, molecular weight 36,000-50,000) aqueous solution from Day 0 to Day 7, and the DSS aqueous solution was replaced with freshly prepared solution every day to prevent degradation. Mice in the normal control group were provided with normal water. The experimental period was 9 days, and the mice were euthanized and samples were collected at the experimental endpoint.
The DAI score was assessed daily. The DAI score consisted of 3 parts: body weight change, stool characteristics, and hematochezia (or occult blood) score, and the specific scoring criteria were as shown in Table 49. The DAI scoring of all mice was done by the same staff throughout the experiment.
Mice were euthanized at the experimental endpoint. The colon of mice was dissected, and photograph was taken, the length was measured, and the contents were removed before weighing.
The data were expressed as mean±standard error (X±s). Body weight change and disease activity score were statistically analyzed by two-way ANOVA and comparison between groups were performed by Dunnett's test. Other data were statistically analyzed by one-way ANOVA and comparison between groups were performed by Dunnett's test. All analyses were performed using GraphPad Prism software. * P<0.05, ** P<0.01, *** P<0.005, **** P<0.0001 vs. solvent group.

[5] = tested on: bleomycin-induced skin fibrosis; experiment: Bleomycin-induced skin fibrosis in mice: skin histopathology (dermal thickness, capillary density score, inflammatory cell infiltration score); assay type: in vivo, male C57BL/6 mice; conditions: 50 mg/kg PO BID, 28 days
Protocol: The skin tissue of the lesioned skin was subjected to dehydration, embedding and sectioning according to the pathology SOP, and the tissue was stained by HE and Masson staining. Histopathological analysis was performed according to the following methods:
Masson-stained sections were panoramically scanned by using Nanozomer S210 and the scanned images were subjected to quantitative analysis using Visiopharm VIS6.0 software. The degree of fibrosis was currently represented by the dermal thickness after Masson staining.
The fields of observation was selected in the dermis layer of the lesioned area (the number of fields selected was determined according to the size of the lesioned area) and scored according to the area occupied by capillaries in the area: • 0: No capillary formed • 1: The proportion of capillaries formed was less than 25%; • 2: The proportion of capillaries formed was 25-50%; • 3: The proportion of capillaries formed was 50-75%; • 4: The proportion of capillaries formed was greater than 75%. 3.8.3 Inflammatory cell infiltration score of dermis layer
The fields of observation was selected in the dermis layer of the lesioned area (the number of fields selected was determined according to the size of the lesioned area) and scored according to the degree of inflammatory cell infiltration: • 0: No inflammatory cell infiltration: • 1: A small amount of focal inflammatory cell infiltration; • 2: Scattered diffuse inflammatory cell infiltration: • 3: A large amount of diffuse inflammatory cell infiltration; • 4: A large amount of agglomerated inflammatory cell infiltration.

[6] = rats with spontaneous hypertension
[7] = Day 0, 12.5 mg/kg topical QD × 5 days
[8] = Day 1, 12.5 mg/kg topical QD × 5 days
[9] = Day 2, 12.5 mg/kg topical QD × 5 days
[10] = Day 3, 12.5 mg/kg topical QD × 5 days
[11] = Day 4, 12.5 mg/kg topical QD × 5 days
[12] = Day 5, 12.5 mg/kg topical QD × 5 days
[13] = Day 6, 12.5 mg/kg topical QD × 5 days
[14] = Day 7, 12.5 mg/kg topical QD × 5 days

## NCCc1c[nH]c(=S)n1[C@H]1COc2c(F)cc(F)cc2C1 [Etamicastat]
[1]; 10 mg/kg PO QD × 8 days
  Body weight on Day 7, g: 19.18 g
  Body weight on Day 7/initial body weight, %: 91.92%
  Body weight on Day 8, g: 18.20 g
  Body weight on Day 8/initial body weight, %: 87.27%
  DAI score on Day 8: 6.20
  Colon density: 32.24 mg/cm
[1]; 30 mg/kg PO QD × 8 days
  Body weight on Day 7, g: 19.48 g
  Body weight on Day 7/initial body weight, %: 92.19%
  Body weight on Day 8, g: 18.89 g
  Body weight on Day 8/initial body weight, %: 89.13%
  DAI score on Day 8: 6.56
  Colon density: 34.23 mg/cm
[1]; 100 mg/kg PO QD × 8 days
  Body weight on Day 7, g: 20.08 g
  Body weight on Day 8, g: 19.19 g
  Body weight on Day 8/initial body weight, %: 91.63%
  DAI score on Day 8: 5.00
[1]; Nepicastat 30, Etamicastat 100, Zamicastat 100 mg/kg PO QD × 8 days (Test groups 1#, 4#, 7#) vs solvent group
  severity of DSS-induced colitis and disease activity: ameliorated the severity of DSS-induced colitis and reduced disease activity
Norepinephrine level; compared with Nepicastat
  brain-blood-barrier penetration: lower levels of brain-blood-barrier penetration
Norepinephrine level; [6]
  effect on brain tissue (norepinephrine level): no effect on brain tissue
  norepinephrine level in peripheral sympathetic innervation tissues: reduce the norepinephrine level in peripheral sympathetic innervation tissues
[2]; 10 days of treatment
  tolerance and safety: good tolerance and safety
[2]; after 10 days of treatment
  systolic and diastolic blood pressure: reduced systolic and diastolic blood pressure in a dose-dependent manner

## C[C@@H]1CCN(C(=O)CC#N)C[C@@H]1N(C)c1ncnc2[nH]ccc12 [Tofacitinib]
[3]; 12.5 mg/kg topical QD × 5 days, then BID × 2 days
  efficacy on clinical score: showed efficacy after doubling the dose
[3]; [7]
  erythema score: 0
  scales score: 0
[3]; Day 0
  thickness score: 0
  total score of erythema + scales + thickness: 0
[3]; [8]
  erythema score: 0
  scales score: 0
[3]; Day 1
  thickness score: 0.8
  total score of erythema + scales + thickness: 0.8
[3]; [9]
  erythema score: 1.4
  scales score: 0
[3]; Day 2
  thickness score: 1.4
  total score of erythema + scales + thickness: 2.8
[3]; [10]
  erythema score: 1.9
  scales score: 0.4
[3]; Day 3
  thickness score: 2.2
  total score of erythema + scales + thickness: 4.5
[3]; [11]
  erythema score: 2.2
  scales score: 0.7
[3]; Day 4
  thickness score: 2
  total score of erythema + scales + thickness: 4.9
[3]; [12]
  erythema score: 2
  scales score: 1.4
[3]; Day 5
  thickness score: 2.2
  total score of erythema + scales + thickness: 5.6
[3]; [13]
  erythema score: 1.8
  scales score: 1.3
[3]; Day 6
  thickness score: 2
  total score of erythema + scales + thickness: 5.1
[3]; [14]
  erythema score: 1.7
  scales score: 1.6
[3]; Day 7
  thickness score: 1.9
  total score of erythema + scales + thickness: 5.2

## O=C(O)/C=C/C(=O)O [Fumaric acid]
[4]
  symptoms caused by DSS-induced colitis (diarrhea, hematochezia): slightly ameliorate the symptoms of diarrhea and hematochezia
[4]; vs solvent group
  DSS-induced body weight loss: showed a trend of alleviating DSS-induced body weight loss
[4]; vs solvent group, relatively obvious on Day 4 and Day 5
  disease activity score (DAI): slightly improved

## COC(=O)c1ccc2c(c1)NC(=O)/C2=C(\Nc1ccc(N(C)C(=O)CN2CCN(C)CC2)cc1)c1ccccc1 [Nintedanib]
[5]
  inflammatory cell infiltration of the lesioned skin: visibly reduce
  subdermal capillary hyperplasia: visibly reduce
